Reference: patent US11207312B2, “Metallo-beta-lactamase inhibitors and methods of use thereof” (priority 2017, dated 2021)

Tests used:
[1] = tested on: P. aeruginosa MB9799 (efflux-, IMP-1 plasmid); type: cell-based, Pseudomonas aeruginosa; details: efflux − (MB9799) strain; imipenem at 2 μg/mL; in the presence of a class A, C, D serine β-lactamase inhibitor closely related to relebactam
How it was run: (§1)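 Isogenic P. aeruginosa PAO1 strains (efflux+ and multiple-efflux-pump-disrupted) carrying plasmid IMP-1, with inducible AmpC, tested by broth microdilution. Imipenem and/or ceftazidime fixed, usually at CLSI breakpoint, plus fixed class A/C β-lactamase inhibitor; titrated MBL inhibitor concentration restoring susceptibility recorded and compared between strains as efflux fold difference.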

VIM-2 = VIM-2 (Escherichia coli, UniProt Q5U7L7); assay: biochemical; details: CCF2-FA fluorescence assay; read-out: VIM2 IC50
[2] = tested on: Escherichia coli expressing NDM-1 (CLB30016); type: cell-based; details: with imipenem 1 μg/ml; 95% inhibition of bacterial growth
How it was run: (§2)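 Read-out is absorbance after 22–24 h at 35 °C, with MITC95 taken as the lowest inhibitor concentration that, alongside imipenem at 1 μg/ml, suppresses 95% of bacterial growth. Inocula came from saline-suspended colonies diluted 1:100 into 1.1× CAMHB.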

[3] = tested on: Klebsiella pneumoniae expressing VIM-1 (IHMA599644); type: cell-based; details: with imipenem 1 μg/ml; 95% inhibition of bacterial growth
How it was run: as §2

[4] = tested on: Serratia marcescens expressing IMP-1 (CL5741); type: cell-based; details: with imipenem 1 μg/ml; 95% inhibition of bacterial growth
How it was run: as §2

NDM-1 = NDM-1 (Klebsiella pneumoniae, UniProt C7C422); assay: biochemical; type: biochemical; details: CCF2-FA fluorescence assay, 2 hours at 25° C.
Sequence of NDM-1 (C7C422 whole entry, looked up, species assumed): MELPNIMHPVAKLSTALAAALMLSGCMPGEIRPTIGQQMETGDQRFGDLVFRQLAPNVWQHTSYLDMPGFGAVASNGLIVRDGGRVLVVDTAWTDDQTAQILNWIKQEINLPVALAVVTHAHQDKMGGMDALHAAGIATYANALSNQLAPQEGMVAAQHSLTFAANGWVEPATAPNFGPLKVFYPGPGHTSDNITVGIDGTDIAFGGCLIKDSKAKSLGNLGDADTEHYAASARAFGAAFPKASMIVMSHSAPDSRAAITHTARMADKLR
How it was run: (§3)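 In pH 7 phosphate buffer (100 mM) with 10 μM ZnSO4 and 0.005% Tween-20, CCF2-FA hydrolysis (1.25 μM) by 1 pM NDM-1, 2 pM IMP-1 or 30 pM VIM-1 was run 2 h at 25° C with inhibitor from 20 to 0.00063 μM. Ex 405/em 460 nm signal fitted to a 4-parameter curve for IC50.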

VIM-1 = VIM-1 (Pseudomonas aeruginosa (strain ATCC 15692 / DSM 22644 / CIP 104116 / JCM 14847 / LMG 12228 / 1C / PRS 101 / PAO1), UniProt A0A0F7KYQ8); assay: biochemical; details: CCF2-FA fluorescence assay, 2 hours at 25° C.; read-out: VIM1 IC50
How it was run: as §3

IMP-1 = IMP-1 (Serratia marcescens, UniProt P52699); assay: biochemical; details: CCF2-FA fluorescence assay, 2 hours at 25° C.; read-out: IMP1 IC50
Sequence of IMP-1 (P52699 whole entry, looked up, species assumed): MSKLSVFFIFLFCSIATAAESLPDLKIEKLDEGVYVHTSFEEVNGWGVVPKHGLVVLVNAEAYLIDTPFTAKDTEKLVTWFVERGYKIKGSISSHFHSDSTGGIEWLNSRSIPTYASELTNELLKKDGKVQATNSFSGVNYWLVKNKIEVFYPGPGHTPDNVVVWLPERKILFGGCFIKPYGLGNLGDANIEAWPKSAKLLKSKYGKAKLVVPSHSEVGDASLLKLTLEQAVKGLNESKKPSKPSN
How it was run: as §3

[5] = tested on: P. aeruginosa MB9798 (efflux+, IMP-1 plasmid); details: for MB9798 MITC95 P. aeruginosa uM Efflux WT: efflux + (MB9798) strain, imipenem at 2 μg/mL, in the presence of a class A, C, D serine β-lactamase inhibitor closely related to relebactam; for Efflux ratio: fold difference between efflux+ (MB9798) and efflux− (MB9799) strains
How it was run: as §1

| Structure (SMILES) | MB9799 MITC95 P. aeruginosa uM Efflux Mutant [1] [µM] | IC50 (VIM-2) [nM] | CLB30016 E. coli MITC95 NDM [2] [µM] | IHMA599644 K. pneumoniae MITC95 VIM [3] [µM] | CL5741 S. marcescens MITC95 IMP [4] [µM] | IC50 (NDM-1) [nM] | IC50 (VIM-1) [nM] | IC50 (IMP-1) [nM] | MB9798 MITC95 P. aeruginosa uM Efflux WT [5] [µM] | Efflux ratio [5] |
| --- | --- | --- | --- | --- | --- | --- | --- | --- | --- | --- |
| NC[C@H](N)CNS(=O)(=O)c1ccc(N2CCC(CO)CC2)c(-c2nnn[nH]2)c1S(N)(=O)=O [Example 44, (S)-N1-(2,3-diaminopropyl)-4-(4-(hydroxymethyl)piperidin-1-yl)-3-(1H-tetrazol-5-yl)benzene-1,2-disulfonamide] | 1.56 | 0.63 | 3.13 | 6.25 | 3.13 | 0.36 | 0.06 | 0.56 | 3.13 | 2.00 |
| CNCC1CCN(c2ccc(S(=O)(=O)N[C@@H]3CCNC3)c(S(N)(=O)=O)c2-c2nnn[nH]2)CC1 [Example 74, 4-{4-[(methylamino)methyl]piperidin-1-yl}-N1-[(3R)-pyrrolidin-3-yl]-3-(1H-tetrazol-5-yl)benzene-1,2-disulfonamide] | 0.78 | 6.86 | 0.78 | 3.13 | 1.56 | 3 | 0.45 | 6.8 | 1.56 | 2.00 |
| NS(=O)(=O)c1c(S(=O)(=O)N[C@@H]2CCNC2)ccc(N2CCOC(CO)C2)c1-c1nnn[nH]1 (stereo partly drawn) [Example 103, 4-[2-(hydroxymethyl)morpholin-4-yl]-N1-[(3R)-pyrrolidin-3-yl]-3-(1H-tetrazol-5-yl)benzene-1,2-disulfonamide] | 1.56 | 0.59 | 3.13 | 6.25 | 3.13 | 0.68 | 0.42 | 3.46 | 3.13 | 2.00 |
| NS(=O)(=O)c1c(S(=O)(=O)N[C@@H]2CCNC2)ccc(N2CCCC(C(=O)NCCCO)C2)c1-c1nnn[nH]1 (stereo partly drawn) [Example 108, N-(3-hydroxypropyl)-1-{4-[(3R)-pyrrolidin-3-ylsulfamoyl]-3-sulfamoyl-2-(1H-tetrazol-5-yl)phenyl}piperidine-3-carboxamide] | 6.25 | 1.77 | 6.25 | 12.50 | 12.50 | 0.71 | 0.5 | 2.39 | 12.50 | 2.00 |
| NC[C@@H]1CCCN(c2ccc(S(=O)(=O)N[C@@H]3CCNC3)c(S(N)(=O)=O)c2-c2nnn[nH]2)C1 [Example 78, 4-[(3S)-3-(aminomethyl)piperidin-1-yl]-N1-[(3R)-pyrrolidin-3-yl]-3-(1H-tetrazol-5-yl)benzene-1,2-disulfonamide] | 0.78 | 3.01 | 0.39 | 1.56 | 1.56 | 5.4 | 0.66 | 35.4 | 6.25 | 8.00 |
| NCCC1CCN(c2ccc(S(=O)(=O)N[C@@H](CN)CO)c(S(N)(=O)=O)c2-c2nn[nH]n2)CC1 [Example 187, (S)-N1-(1-amino-3-hydroxypropan-2-yl)-4-(4-(2-aminoethyl)piperidin-1-yl)-3-(2H-tetrazol-5-yl)benzene-1,2-disulfonamide] | 0.39 | 0.49 | 0.78 | 0.78 | 0.78 | 0.13 | 0.03 | 0.24 | 0.39 | 1.00 |
| NC[C@@H](O)CNS(=O)(=O)c1ccc(N2CCC[C@H](CN)C2)c(-c2nnn[nH]2)c1S(N)(=O)=O [Example 39, N1-((R)-3-amino-2-hydroxypropyl)-4-((R)-3-(aminomethyl)piperidin-1-yl)-3-(1H-tetrazol-5-yl)benzene-1,2-disulfonamide] | 1.56 | 11.6 | 1.56 | 1.56 | 0.78 | 50.4 | 1.71 | 44.6 | 3.13 | 2.00 |
| NC[C@@H](O)CNS(=O)(=O)c1ccc(N[C@H]2CCC[C@H]2N)c(-c2nn[nH]n2)c1S(N)(=O)=O [Example 178, N1-((R)-3-amino-2-hydroxypropyl)-4-(((1S,2R)-2-aminocyclopentyl)amino)-3-(2H-tetrazol-5-yl)benzene-1,2-disulfonamide] | 6.25 | 132 | 1.56 | 6.25 | 6.25 | 29 | 80.1 | 101 | 25.00 | 4.00 |
| CC1CN(c2ccc(S(=O)(=O)NC[C@H](O)CN)c(S(N)(=O)=O)c2-c2nn[nH]n2)CCN1CCO.O=C(O)C(F)(F)F.O=C(O)C(F)(F)F (stereo partly drawn) [Example 176, N1-((R)-3-amino-2-hydroxypropyl)-4-(4-(2-hydroxyethyl)-3-methylpiperazin-1-yl)-3-(2H-tetrazol-5-yl)benzene-1,2-disulfonamide bis(2,2,2-trifluoroacetate) salt] | 1.56 | 11.7 | 0.39 | 1.56 | 0.39 | 2.51 | 2.76 | 5.1 | 3.13 | 2.00 |
| NCC1(O)CCN(c2ccc(S(=O)(=O)N[C@@H]3CCNC3)c(S(N)(=O)=O)c2-c2nnn[nH]2)CC1 [Example 85, 4-[4-(aminomethyl)-4-hydroxypiperidin-1-yl]-N1-[(3R)-pyrrolidin-3-yl]-3-(1H-tetrazol-5-yl)benzene-1,2-disulfonamide] | 0.78 | 23.7 | 0.78 | 1.56 | 1.56 | 3.15 | 2.13 | 9.94 | 1.56 | 2.00 |
| NC1(CO)CCN(c2ccc(S(=O)(=O)N[C@@H]3CCNC3)c(S(N)(=O)=O)c2-c2nnn[nH]2)C1 (stereo partly drawn) [Example 84, 4-[3-amino-3-(hydroxymethyl)pyrrolidin-1-yl]-N1-[(3R)-pyrrolidin-3-yl]-3-(1H-tetrazol-5-yl)benzene-1,2-disulfonamide] | 1.56 | 46.9 | 0.78 | 1.56 | 1.56 | 19.7 | 7.27 | 33 | 6.25 | 4.00 |
| NCCNS(=O)(=O)c1ccc(N2CCC(CO)CC2)c(-c2nnn[nH]2)c1S(N)(=O)=O [Example 43, N1-(2-aminoethyl)-4-(4-(hydroxymethyl)piperidin-1-yl)-3-(1H-tetrazol-5-yl)benzene-1,2-disulfonamide] | 1.56 | 0.61 | 1.56 | 6.25 | 1.56 | 0.51 | 0.19 | 0.58 | 1.56 | 1.00 |
